Test results from the Kinase Knowledgebase extract (Sharma et al. 2016).

biological target: ROCK2 (human) (UniProt O75116); experiment: Assessment of ROCK2 Kinase Activity
Sequence (O75116 whole entry, looked up): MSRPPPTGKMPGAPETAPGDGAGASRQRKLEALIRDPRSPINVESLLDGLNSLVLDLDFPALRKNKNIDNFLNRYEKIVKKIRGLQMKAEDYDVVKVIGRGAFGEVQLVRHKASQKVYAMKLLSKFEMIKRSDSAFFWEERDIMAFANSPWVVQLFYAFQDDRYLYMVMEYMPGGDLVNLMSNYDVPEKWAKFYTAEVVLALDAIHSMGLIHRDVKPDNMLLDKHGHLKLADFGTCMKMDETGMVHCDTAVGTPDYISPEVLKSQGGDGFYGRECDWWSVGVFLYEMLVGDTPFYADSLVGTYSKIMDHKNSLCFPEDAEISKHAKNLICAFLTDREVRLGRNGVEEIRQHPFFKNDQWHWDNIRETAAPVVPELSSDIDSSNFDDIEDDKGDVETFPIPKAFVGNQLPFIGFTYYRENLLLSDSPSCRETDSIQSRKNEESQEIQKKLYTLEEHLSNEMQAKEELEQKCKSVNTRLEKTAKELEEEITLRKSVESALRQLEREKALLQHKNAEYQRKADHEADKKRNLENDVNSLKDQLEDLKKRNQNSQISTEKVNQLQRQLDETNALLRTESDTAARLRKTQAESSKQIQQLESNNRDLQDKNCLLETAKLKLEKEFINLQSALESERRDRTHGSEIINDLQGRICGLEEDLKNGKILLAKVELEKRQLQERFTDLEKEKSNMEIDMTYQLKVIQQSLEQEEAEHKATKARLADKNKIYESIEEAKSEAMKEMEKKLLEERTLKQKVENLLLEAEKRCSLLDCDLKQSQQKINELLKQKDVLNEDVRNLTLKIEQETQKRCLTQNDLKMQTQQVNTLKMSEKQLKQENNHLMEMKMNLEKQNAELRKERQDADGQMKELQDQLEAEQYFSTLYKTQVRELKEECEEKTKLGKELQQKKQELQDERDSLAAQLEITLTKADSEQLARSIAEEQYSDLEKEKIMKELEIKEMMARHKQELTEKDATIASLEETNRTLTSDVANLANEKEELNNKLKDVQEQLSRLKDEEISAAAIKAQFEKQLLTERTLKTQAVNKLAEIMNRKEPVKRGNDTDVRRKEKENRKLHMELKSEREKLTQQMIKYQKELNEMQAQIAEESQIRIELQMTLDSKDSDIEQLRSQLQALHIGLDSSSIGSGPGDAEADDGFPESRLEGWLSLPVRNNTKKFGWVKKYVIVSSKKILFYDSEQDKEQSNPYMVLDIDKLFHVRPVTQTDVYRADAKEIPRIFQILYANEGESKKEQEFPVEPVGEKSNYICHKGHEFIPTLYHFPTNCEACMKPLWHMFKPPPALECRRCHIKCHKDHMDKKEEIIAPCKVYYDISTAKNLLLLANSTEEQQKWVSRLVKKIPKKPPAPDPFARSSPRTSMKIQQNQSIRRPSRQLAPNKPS

SMILES	IC50 [nM]
NCC1(c2ccc(Cl)cc2)CCC(Oc2cc3cc[nH]c(=O)c3cc2Cl)CC1 (stereo unspecified)	≤ 1000
COc1ccc(C2(CN)CCC(Oc3cc4cc[nH]c(=O)c4cc3Cl)CC2)cc1OC (stereo unspecified)	≤ 1000
COc1ccc(C2(CN)CCC(Oc3cc4cc[nH]c(=O)c4cc3Cl)CC2)cc1 (stereo unspecified)	≤ 1000
NCC1(c2ccccc2)CCC(Oc2cc3ccncc3cc2Cl)CC1 (stereo unspecified)	≤ 1000
NCC1(c2ccc(Cl)c(Cl)c2)CCC(Oc2cc3cc[nH]c(=O)c3cc2Cl)CC1 (stereo unspecified)	≤ 1000

Results, then the compound that gave them:

IC50 [nM]	SMILES
≤ 1000	C=CCC1(N)CCC(Oc2cc3cc[nH]c(=O)c3cc2Cl)CC1 (stereo unspecified)
≤ 1000	N[C@]1(C2CC2)CC[C@H](Oc2cc3cc[nH]c(=O)c3cc2Cl)CC1
≤ 1000	NCC1(c2ccccc2)CCC(Oc2cc3cc[nH]c(=O)c3cc2Cl)CC1 (stereo unspecified)
≤ 1000	NCC1(c2ccc(F)cc2)CCC(Oc2cc3cc[nH]c(=O)c3cc2Cl)CC1 (stereo unspecified)
≤ 1000	NC1(CC(O)CO)CCC(Oc2cc3cc[nH]c(=O)c3cc2Cl)CC1 (stereo unspecified)
≤ 1000	NCC1(c2cccc(Cl)c2)CCC(Oc2cc3cc[nH]c(=O)c3cc2Cl)CC1 (stereo unspecified)
